Like-named read-outs stand apart in the source and are kept apart here.
Tests used:
[1] = test system: MV4–11-luc cells; experiment: Intra-bone marrow transplantation (IBMT) model; type: in vivo, mice
Procedure: In the intra-bone marrow transplantation (IBMT) model, MV4–11-luc cells (1 × 10^6 cells/mouse) were injected into the bone marrow of the left tibia of female NOD-SCID mice (day 0) following the protocol detailed by Lee et al.. Tumor growth was monitored by bioluminescent imaging of the whole body with an IVIS Spectrum (PerkinElmer, Waltham, MA). […] Tumor growth was monitored once a week during the dosing period and then every other week until day 100. Survival was also monitored daily until day 168.

[2] = test system: MV4–11 cells; experiment: CellTiter-Glo cell viability; type: cell-based; conditions: Homo sapiens, MV4-11, 120 h; 5 days of treatment; read-out: Growth inhibition mean IC50
Procedure: A detailed protocol is provided in the online resource.
The assay was performed in either triplicate or quadruplicate. […] The geometric mean was calculated from three individual experiments.

[3] = molecular target: T1, c-KIT (Homo sapiens, UniProt P10721); experiment: Kinase inhibitory assay (TK-ELISA / off-chip MSA); type: biochemical
T1 construct: purchased Carna Biosciences, Inc
Procedure: These assays were conducted according to the manufacturer’s instructions. […] TK-ELISA and MSA assays were used to conduct IC50 studies for FLT3, LTK, AXL, and c-KIT; the HTRF® KinEASE™-TK assay (Sceti Medical Labo, Tokyo, Japan) was performed according to the manufacturer’s protocol to assess the IC50 value of echinoderm microtubule-associated protein-like 4-ALK (EML4-ALK; three individual experiments for each kinase).

[4] = Pharmacokinetics in MV4–11 xenografted nude mice (plasma and tumor); type: in vivo; conditions: for AUC(0-t) / Cmax / Tmax: nude, mouse; for AUC(0-t): read-out: AUCt, plasma concentration; for Tmax: read-out: Time of maximal plasma concentration
Procedure: Tumor samples were also collected from each mouse and tumor weight was measured.

[5] = test system: p-AKT; experiment: Immunoblot of downstream FLT3 targets in MV4-11 cells; type: cell-based; conditions: Homo sapiens
Procedure: (§1) FLT3 immunoprecipitation and immunoblotting for all targets were performed following standard protocols. Detailed methods are provided in the online resource.
(§2) Cells were treated for 2 h prior to cell lysate preparation in RIPA buffer supplemented with phosphatase / protease inhibitors. Following sample preparation, protein lysates were electrophoresed on 7.5% gels and transferred to PVDF membranes.
(§3) All membranes were blocked using either Blocking One or Blocking One-P (Nacalai Tesque Inc., Kyoto, Japan) for 1 h prior to an overnight incubation with primary antibody. Membranes were incubated overnight at 4°C with one of the following antibodies: anti-FLT3 antibody (Abcam), anti-phosphorylated pan-tyrosine, anti-ERK, anti-phospho-ERK, anti-STAT5, anti-phospho-STAT5, anti-AKT, anti-phospho-AKT, anti-AXL, anti-phospho-AXL, or anti-actin. The membranes were then washed with 1× TBS Tween-20 (TBS-T) Buffer (Thermo Fisher Scientific Inc., Rockford, IL) and incubated with an appropriate HRP-linked secondary antibody (Cell Signaling Technology) for 1 h at room temperature. After a final wash, ECL Western Blotting Detection Reagent ECL-prime (GE Healthcare, Fairfield, CT) were applied to the membranes and signals were detected with a CCD camera (ImageQuant LAS4000; GE Healthcare). Signal intensity was then quantified using ImageQuant™ TL software (GE Healthcare). The study was performed once in triplicate, and the mean percentage of phosphorylated protein to total protein relative to that in vehicle-treated cells was calculated.

[6] = test system: p-STAT5; experiment: as above; type: cell-based; conditions: Homo sapiens
Procedure: as §1, §2, §3

[7] = test system: p-ERK; experiment: as above; type: cell-based; conditions: Homo sapiens
Procedure: as §1, §2, §3

[8] = molecular target: T2, phosphorylated AXL (Homo sapiens, UniProt P30530); experiment: Immunoblot of phospho-AXL in MV4-11-AXL cells; type: cell-based; conditions: 4 h, MV4–11 cells expressing exogenous AXL
T2 construct: expressed in transfected cells; host or cells: MV4-11-AXL cells (MV4-11 exogenously expressing AXL)
T2 sequence (P30530 26-894): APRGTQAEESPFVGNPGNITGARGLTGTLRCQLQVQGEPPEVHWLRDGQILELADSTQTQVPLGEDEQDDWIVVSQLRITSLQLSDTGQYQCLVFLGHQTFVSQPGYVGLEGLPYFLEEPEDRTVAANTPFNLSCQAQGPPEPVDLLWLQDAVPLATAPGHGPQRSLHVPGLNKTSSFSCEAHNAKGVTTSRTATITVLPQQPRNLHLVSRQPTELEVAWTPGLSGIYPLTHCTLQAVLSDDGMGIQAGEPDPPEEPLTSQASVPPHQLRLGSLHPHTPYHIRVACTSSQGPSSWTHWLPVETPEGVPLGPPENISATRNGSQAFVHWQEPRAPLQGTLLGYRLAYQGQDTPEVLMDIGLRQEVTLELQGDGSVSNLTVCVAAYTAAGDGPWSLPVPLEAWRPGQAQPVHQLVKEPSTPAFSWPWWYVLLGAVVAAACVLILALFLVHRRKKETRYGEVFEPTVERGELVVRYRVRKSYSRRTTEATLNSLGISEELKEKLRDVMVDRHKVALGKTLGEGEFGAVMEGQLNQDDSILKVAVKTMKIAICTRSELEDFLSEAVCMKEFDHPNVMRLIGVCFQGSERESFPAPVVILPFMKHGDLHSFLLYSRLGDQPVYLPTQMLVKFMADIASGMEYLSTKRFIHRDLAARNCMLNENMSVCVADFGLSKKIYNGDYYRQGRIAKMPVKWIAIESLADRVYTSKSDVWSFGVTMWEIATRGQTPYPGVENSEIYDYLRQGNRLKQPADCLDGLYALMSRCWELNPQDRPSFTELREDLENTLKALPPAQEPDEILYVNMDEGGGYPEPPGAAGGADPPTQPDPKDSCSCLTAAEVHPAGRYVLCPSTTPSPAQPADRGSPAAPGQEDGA
Procedure: Cells were treated for 4 h prior to cell lysate preparation in RIPA buffer supplemented with phosphatase / protease inhibitors. The protein lysates were subsequently electrophoresed on 7.5% gels and transferred to PVDF membranes.
as §3
Fig. S1. […] Protein lysates were collected in RIPA buffer and immunoblotting was performed to detect both phosphorylated and total levels of AXL (triplicate).

[9] = read-out: Kinase inhibition at the specified gilteritinib concentration (%), 0.1 nM, 2 h
[10] = read-out: Kinase inhibition at the specified gilteritinib concentration (%), 1 nM, 2 h
[11] = read-out: Kinase inhibition at the specified gilteritinib concentration (%), 10 nM, 2 h

T1 sequence (P10721 26-976): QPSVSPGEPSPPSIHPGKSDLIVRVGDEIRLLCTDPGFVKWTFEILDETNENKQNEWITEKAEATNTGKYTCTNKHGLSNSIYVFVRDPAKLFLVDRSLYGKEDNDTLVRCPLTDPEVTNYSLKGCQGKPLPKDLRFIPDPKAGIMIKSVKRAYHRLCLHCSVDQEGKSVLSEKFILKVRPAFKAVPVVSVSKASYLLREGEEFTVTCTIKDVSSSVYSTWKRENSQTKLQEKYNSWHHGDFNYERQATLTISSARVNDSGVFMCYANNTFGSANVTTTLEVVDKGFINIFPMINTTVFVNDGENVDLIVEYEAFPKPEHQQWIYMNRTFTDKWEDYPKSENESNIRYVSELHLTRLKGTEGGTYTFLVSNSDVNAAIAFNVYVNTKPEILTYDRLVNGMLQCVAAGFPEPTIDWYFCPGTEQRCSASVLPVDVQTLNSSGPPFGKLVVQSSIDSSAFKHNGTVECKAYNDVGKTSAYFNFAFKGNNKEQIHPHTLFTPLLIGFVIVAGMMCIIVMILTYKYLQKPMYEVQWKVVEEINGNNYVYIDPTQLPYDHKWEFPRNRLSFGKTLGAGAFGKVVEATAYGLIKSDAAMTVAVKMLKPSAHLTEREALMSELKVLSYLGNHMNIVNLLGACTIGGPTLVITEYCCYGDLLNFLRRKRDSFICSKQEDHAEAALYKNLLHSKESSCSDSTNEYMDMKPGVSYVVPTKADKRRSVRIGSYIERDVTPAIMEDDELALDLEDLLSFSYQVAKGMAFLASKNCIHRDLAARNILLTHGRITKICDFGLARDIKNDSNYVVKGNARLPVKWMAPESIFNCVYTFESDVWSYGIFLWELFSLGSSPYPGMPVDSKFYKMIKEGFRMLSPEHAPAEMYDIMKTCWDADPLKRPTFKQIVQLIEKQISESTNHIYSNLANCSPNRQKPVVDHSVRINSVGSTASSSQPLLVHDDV

In the case of CCc1nc(C(N)=O)c(Nc2ccc(N3CCC(N4CCN(C)CC4)CC3)c(OC)c2)nc1NC1CCOCC1 [gilteritinib], the Survival ([1]; 30 mg/kg once daily day 15–70, monitored until day 168, n = 10) is reported as “all treated mice survived to day 168”, the “MV4–11 cell infiltration” value ([1]; 30 mg/kg once daily, whole-body imaging) is reported as “no evidence of cell infiltration” and the IC50 [2] is reported as 0.92 nM. For the same compound, the IC50 [3] was 230 nM, the AUC(0-t) ([4]; plasma, single oral 1 mg/kg) was 25.2 ng·h/mL and the Cmax ([4]; plasma, single oral 1 mg/kg, read-out: Cmax, plasma concentration) was 6.56 ng/mL. It also gave a Tmax ([4]; plasma, single oral 1 mg/kg) of 2 h, an AUC(0-t) ([4]; plasma, single oral 6 mg/kg) of 269 ng·h/mL and a Cmax ([4]; plasma, single oral 6 mg/kg, read-out: Cmax, plasma concentration) of 45.9 ng/mL. It also gave a Tmax ([4]; plasma, single oral 6 mg/kg) of 2 h, an AUC(0-t) ([4]; plasma, single oral 10 mg/kg) of 493 ng·h/mL and a Cmax ([4]; plasma, single oral 10 mg/kg, read-out: Cmax, plasma concentration) of 83 ng/mL. For the same compound, the Tmax ([4]; plasma, single oral 10 mg/kg) was 2 h, the Cmax ([4]; tumor, single oral 1 mg/kg, read-out: Cmax, intratumor concentration) was 90.6 ng/g and the Cmax ([4]; tumor, single oral 6 mg/kg, read-out: Cmax, intratumor concentration) was 772 ng/g. For the same compound, the Cmax ([4]; tumor, single oral 10 mg/kg, read-out: Cmax, intratumor concentration) was 1120 ng/g, the “Concentration in tumors compared with plasma” value ([4]; single oral 1, 6, 10 mg/kg, each time point) was “higher than that in plasma at each time point” and the “AUCt, intratumor concentration” value ([4]; tumor, single oral 1 mg/kg) was 1186 ng·h/g. The “Time of maximal intratumor concentration” value ([4]; tumor, single oral 1 mg/kg) was 4 h, the “AUCt, intratumor concentration” value ([4]; tumor, single oral 6 mg/kg) was 12880 ng·h/g and the “Time of maximal intratumor concentration” value ([4]; tumor, single oral 6 mg/kg) was 8 h. For the same compound, the “AUCt, intratumor concentration” value ([4]; tumor, single oral 10 mg/kg) was 17330 ng·h/g, the “Time of maximal intratumor concentration” value ([4]; tumor, single oral 10 mg/kg) was 8 h and the activity at 0.0001 µM [5, 9] was 65%. It also gave an activity at 0.001 µM [5, 10] of 48%, an activity at 0.01 µM [5, 11] of 9% and an activity at 0.0001 µM [6, 9] of 114%. The activity at 0.001 µM [6, 10] was 23%, the activity at 0.01 µM [6, 11] was 0% and the activity at 0.0001 µM [7, 9] was 54%. The activity at 0.001 µM [7, 10] was 22%, the activity at 0.01 µM [7, 11] was 1% and the “Decrease of phosphorylated AXL levels” value ([8]; 1 nM) was 38%. The “Decrease of phosphorylated AXL levels” value ([8]; 10 nM) was 29% and the “Decrease of phosphorylated AXL levels” value ([8]; 100 nM) was 22%.

— article PMC5613053 (Investigational New Drugs, 2017)
